# Molecular target: T1, Solute carrier family 22 member 4 (Homo sapiens, UniProt Q9H015)
# T1 sequence (Q9H015 whole entry): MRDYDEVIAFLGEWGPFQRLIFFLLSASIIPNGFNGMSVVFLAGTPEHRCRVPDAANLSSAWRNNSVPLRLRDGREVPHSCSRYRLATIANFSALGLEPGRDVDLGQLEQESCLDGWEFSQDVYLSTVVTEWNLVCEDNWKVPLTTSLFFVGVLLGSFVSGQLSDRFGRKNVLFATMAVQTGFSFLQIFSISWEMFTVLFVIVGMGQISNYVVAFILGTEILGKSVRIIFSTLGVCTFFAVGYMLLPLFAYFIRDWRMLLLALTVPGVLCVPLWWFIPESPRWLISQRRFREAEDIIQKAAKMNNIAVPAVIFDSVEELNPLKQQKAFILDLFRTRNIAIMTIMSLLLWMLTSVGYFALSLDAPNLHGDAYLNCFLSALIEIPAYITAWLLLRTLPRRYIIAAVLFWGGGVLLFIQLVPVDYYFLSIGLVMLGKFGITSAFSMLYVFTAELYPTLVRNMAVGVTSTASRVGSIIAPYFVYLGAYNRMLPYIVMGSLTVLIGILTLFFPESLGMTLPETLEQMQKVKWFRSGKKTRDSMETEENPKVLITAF
# Assay: Substrate uptake by the Organic Cation/Carnitine Transporter 1 (OCTN1, SLC22A4) as assessed by the fluorescent FLIPR membrane potential dye in HEK-293 cells stably transfected with SLC22A4 (PubChem AID: 1794816)
# Assay type: functional, cell-based, HEK293
compound,measurement,value
C[N+](C)(C)[C@@H](Cc1c[nH]c(=S)[nH]1)C(=O)[O-],EC50,40 µM
